Results: patent US20230295234A1, “ANTIMICROBIAL PEPTIDOMIMETICS” (SPEXIS AG, priority 2020, published 2023)
Bridge positions count the residues as written; N and C are the ends. Square brackets hold non-standard residues; d marks the D form. Peptide text beside a SMILES is read from it. Pro(4R-NH2) = N[C@H]1CN[C@H](C(=O)O)C1; Gly(N-2-aminoethyl) = NCCNCC(=O)O; Cha = N[C@@H](CC1CCCCC1)C(=O)O; Gly(N(CH2)3NH2) = NCCCNCC(=O)O; Pen = CC(C)(S)[C@H](N)C(=O)O; dDab = NCC[C@@H](N)C(=O)O; Nle = CCCC[C@H](N)C(=O)O; Orn = NCCC[C@H](N)C(=O)O; Dab = NCC[C@H](N)C(=O)O

Columns and labels:
[1] = tested on: human red blood cells (hRBC); experiment: Hemolysis of human red blood cells; assay type: cell-based; settings: red cells of human, 1 h
Description: Lyophilized peptides were weighed on a Microbalance (Mettler MT5) and dissolved in sterile water to a final concentration of 1 mg/mL. Stock solutions were kept at +4° C., light protected. The peptides were tested for their hemolytic activity against human red blood cells (hRBC). Fresh hRBC were washed three times with phosphate buffered saline (PBS) and centrifuged for 5 min at 3000×g. Compounds (200 μg/mL) were incubated with 20% hRBC (v/v) for 1 h at 37° C. and shaking at 300 rpm. […] The samples were centrifuged, the supernatants were 8-fold diluted in PBS buffer and the optical densities (OD) were measured at 540 nm. […] Percent hemolysis was calculated as follows: (OD540peptide/OD540H2O)×100%.

[2] = tested on: Escherichia coli MCR-1 Af 45; settings: MCR-1 Af 45
Description: (§1) Lyophilized peptides were weighed on a Microbalance (Mettler MT5) and dissolved in sterile water to a final concentration of 1 mg/mL. Stock solutions were kept at +4° C., light protected.
(§2) Colonies of the microorganisms were diluted in saline (0.85%, NaCl) and adjusted using a McFarland reader (bioMérieux SA, Marcy-l'Etoile, France) to 0.5 McFarland standard. Subsequently, the bacterial suspension was diluted in Mueller-Hinton II (MHII, cation adjusted) broth to give approximately 5×10^5 colony forming units (CFU/mL).
(§3) 10^6 colony forming units (CFU)/mL. Aliquots (90 μl) of inoculate were added to 10 μl of water+P-80 (Polysorbate 80, 0.002% final concentration) containing the peptide in serial two-fold dilutions at 10 fold final concentration. The following microorganisms were used to determine antibiotic selectivity of the peptides: Escherichia coli ATCC 25922, Escherichia coli MCR-1 Af 45 and Klebsiella pneumoniae SSI3010.

[3] = tested on: Escherichia coli ATCC 25922; settings: ATCC 25922
Description: as §1, §2, §3

[4] = tested on: Klebsiella pneumoniae SSI3010; settings: SSI3010
Description: as §1, §2, §3

Escherichia coli MCR-1 Af 45 MIC [2] [µg/mL] | Escherichia coli ATCC 25922 MIC [3] [µg/mL] | Klebsiella pneumoniae SSI3010 MIC [4] [µg/mL] | SMILES | Hemolysis at 0.2 g/L [1] [%]
0.125 | 0.125 | 0.25 | CCCC[C@H](NC(=O)[C@H](CCCNC(=N)N)NC(=O)[C@H](CCN)NC(=O)[C@@H]1CSSC(C)(C)[C@H](NC(=O)[C@H](Cc2ccc(O)cc2)NC(=O)[C@@H](NC(=O)[C@@H](NC(=O)CN(CCN)C(=O)[C@@H](NC(=O)CNCCN)C(C)C)[C@@H](C)CC)[C@@H](C)CC)C(=O)N[C@@H](CC(N)=O)C(=O)N[C@@H](CCCNC(=N)N)C(=O)N[C@@H](CCN)C(=O)N[C@@H]([C@@H](C)O)C(=O)N[C@H](CCN)C(=O)N[C@@H](CCCCN)C(=O)N1)C(=O)O [Example 13, Ndab-Val-Ndab-Ile-Ile-Tyr-Pen-Asn-Arg-Dab-Thr-^DDab-Lys-Cys-Dab-Arg-Nle] (H-[Gly(N-2-aminoethyl)]V[Gly(N-2-aminoethyl)]IIY[Pen]NR[Dab]T[dDab]KC[Dab]R[Nle]-OH; disulfide 7-14) | 0
0.25 | 0.25 | 0.25 | CCCC[C@H](NC(=O)[C@H](CCCNC(=N)N)NC(=O)[C@H](CCN)NC(=O)[C@@H]1CSSC(C)(C)[C@H](NC(=O)[C@H](Cc2ccc(O)cc2)NC(=O)[C@@H](NC(=O)[C@@H](NC(=O)CN(CCCN)C(=O)[C@@H](NC(=O)CNCCCN)C(C)C)[C@@H](C)CC)[C@@H](C)CC)C(=O)N[C@@H](CC(N)=O)C(=O)N[C@@H](CCCNC(=N)N)C(=O)N[C@@H](CCN)C(=O)N[C@@H]([C@@H](C)O)C(=O)N[C@H](CCN)C(=O)N[C@@H](CCCCN)C(=O)N1)C(=O)O [Example 14, Norn-Val-Norn-Ile-Ile-Tyr-Pen-Asn-Arg-Dab-Thr-^DDab-Lys-Cys-Dab-Arg-Nle] (H-[Gly(N(CH2)3NH2)]V[Gly(N(CH2)3NH2)]IIY[Pen]NR[Dab]T[dDab]KC[Dab]R[Nle]-OH; disulfide 7-14) | 0
0.125 | 0.125 | 0.25 | CCCC[C@H](NC(=O)[C@H](CCCNC(=N)N)NC(=O)[C@H](CCCN)NC(=O)[C@@H]1CSSC(C)(C)[C@H](NC(=O)[C@H](Cc2ccc(O)cc2)NC(=O)[C@@H](NC(=O)[C@@H](NC(=O)CN(CCN)C(=O)[C@@H](NC(=O)CNCCN)C(C)C)[C@@H](C)CC)[C@@H](C)CC)C(=O)N[C@@H](CC(N)=O)C(=O)N[C@@H](CCCNC(=N)N)C(=O)N[C@@H](CCN)C(=O)N[C@@H]([C@@H](C)O)C(=O)N[C@H](CCN)C(=O)N[C@@H](CCCCN)C(=O)N1)C(=O)O [Example 15, Ndab-Val-Ndab-Ile-Ile-Tyr-Pen-Asn-Arg-Dab-Thr-^DDab-Lys-Cys-Orn-Arg-Nle] (H-[Gly(N-2-aminoethyl)]V[Gly(N-2-aminoethyl)]IIY[Pen]NR[Dab]T[dDab]KC[Orn]R[Nle]-OH; disulfide 7-14) | 0
0.125 | 0.125 | 0.25 | CCCC[C@H](NC(=O)[C@H](CCCNC(=N)N)NC(=O)[C@H](CCCN)NC(=O)[C@@H]1CSSC(C)(C)[C@H](NC(=O)[C@H](Cc2ccc(O)cc2)NC(=O)[C@@H](NC(=O)[C@@H](NC(=O)CN(CCN)C(=O)[C@@H](NC(=O)CNCCN)C(C)C)[C@@H](C)CC)[C@@H](C)CC)C(=O)N[C@@H](CC(N)=O)C(=O)N[C@@H](CCCNC(=N)N)C(=O)N[C@@H](CCN)C(=O)N[C@@H]([C@@H](C)O)C(=O)N[C@H](CCN)C(=O)N[C@@H](CCCN)C(=O)N1)C(=O)O [Example 16, Ndab-Val-Ndab-Ile-Ile-Tyr-Pen-Asn-Arg-Dab-Thr-^DDab-Orn-Cys-Orn-Arg-Nle] (H-[Gly(N-2-aminoethyl)]V[Gly(N-2-aminoethyl)]IIY[Pen]NR[Dab]T[dDab][Orn]C[Orn]R[Nle]-OH; disulfide 7-14) | 0
0.125 | 0.125 | 0.25 | CC[C@H](C)[C@H](NC(=O)[C@@H](NC(=O)[C@@H]1C[C@@H](N)CN1C(=O)[C@@H](NC(=O)[C@@H]1CCCN1)C(C)C)[C@@H](C)CC)C(=O)N[C@@H](Cc1ccc(O)cc1)C(=O)N[C@@H]1C(=O)N[C@@H](CC(N)=O)C(=O)N[C@@H](CCCNC(=N)N)C(=O)N[C@@H](CCN)C(=O)N[C@@H]([C@@H](C)O)C(=O)N[C@H](CCN)C(=O)N[C@@H](CCCCN)C(=O)N[C@H](C(=O)N[C@@H](CCC(N)=O)C(=O)N[C@@H](CCCNC(=N)N)C(=O)N[C@@H](CC2CCCCC2)C(=O)O)CSSC1(C)C [Example 17, Pro-Val-Pro((4R)NH2)-Ile-Ile-Tyr-Pen-Asn-Arg-Dab-Thr-^DDab-Lys-Cys-Gln-Arg-Cha] (HELM PEPTIDE1{P.V.[N[C@@H]1C[C@@H](C(=O)[*:2])N([*:1])C1].I.I.Y.[Pen].N.R.[Dab].T.[NCC[C@@H](N[*:1])C(=O)[*:2]].K.C.Q.R.[Cha]}$PEPTIDE1,PEPTIDE1,7:R3-14:R3$$$V2.0) | 0
0.125 | 0.25 | 0.25 | CC[C@H](C)[C@H](NC(=O)[C@@H](NC(=O)[C@@H]1C[C@@H](N)CN1C(=O)[C@@H](NC(=O)[C@@H]1C[C@@H](N)CN1)C(C)C)[C@@H](C)CC)C(=O)N[C@@H](Cc1ccc(O)cc1)C(=O)N[C@@H]1C(=O)N[C@@H](CC(N)=O)C(=O)N[C@@H](CCCNC(=N)N)C(=O)N[C@@H](CCN)C(=O)N[C@@H]([C@@H](C)O)C(=O)N[C@H](CCN)C(=O)N[C@@H](CCCCN)C(=O)N[C@H](C(=O)N[C@@H](CCC(N)=O)C(=O)N[C@@H](CCCNC(=N)N)C(=O)N[C@@H](CC2CCCCC2)C(=O)O)CSSC1(C)C [Example 18, Pro((4R)NH2)-Val-Pro((4R)NH2)-Ile-Ile-Tyr-Pen-Asn-Arg-Dab-Thr-^DDab-Lys-Cys-Gln-Arg-Cha] (H-[Pro(4R-NH2)]V[Pro(4R-NH2)]IIY[Pen]NR[Dab]T[dDab]KCQR[Cha]-OH; disulfide 7-14) | 0
≤0.03125 | 0.0625 | 0.0625 | CC[C@H](C)[C@H](NC(=O)[C@@H](NC(=O)[C@@H]1C[C@@H](N)CN1C(=O)[C@@H](NC(=O)[C@@H]1CCCN1)C(C)C)[C@@H](C)CC)C(=O)N[C@@H](Cc1ccc(O)cc1)C(=O)N[C@@H]1C(=O)N[C@@H](CC(N)=O)C(=O)N[C@@H](CCCNC(=N)N)C(=O)N[C@@H](CCN)C(=O)N[C@@H]([C@@H](C)O)C(=O)N[C@H](CCN)C(=O)N[C@@H](CCCCN)C(=O)N[C@H](C(=O)N[C@@H](CCN)C(=O)N[C@@H](CCCNC(=N)N)C(=O)N[C@@H](CC2CCCCC2)C(=O)O)CSSC1(C)C [Example 19, Pro-Val-Pro((4R)NH2)-Ile-Ile-Tyr-Pen-Asn-Arg-Dab-Thr-^DDab-Lys-Cys-Dab-Arg-Cha] (HELM PEPTIDE1{P.V.[N[C@@H]1C[C@@H](C(=O)[*:2])N([*:1])C1].I.I.Y.[Pen].N.R.[Dab].T.[NCC[C@@H](N[*:1])C(=O)[*:2]].K.C.[Dab].R.[Cha]}$PEPTIDE1,PEPTIDE1,7:R3-14:R3$$$V2.0) | 0
≤0.03125 | ≤0.03125 | 0.125 | CC[C@H](C)[C@H](NC(=O)[C@@H](NC(=O)[C@@H]1C[C@@H](N)CN1C(=O)[C@@H](NC(=O)[C@@H]1C[C@@H](N)CN1)C(C)C)[C@@H](C)CC)C(=O)N[C@@H](Cc1ccc(O)cc1)C(=O)N[C@@H]1C(=O)N[C@@H](CC(N)=O)C(=O)N[C@@H](CCCNC(=N)N)C(=O)N[C@@H](CCN)C(=O)N[C@@H]([C@@H](C)O)C(=O)N[C@H](CCN)C(=O)N[C@@H](CCCCN)C(=O)N[C@H](C(=O)N[C@@H](CCN)C(=O)N[C@@H](CCCNC(=N)N)C(=O)N[C@@H](CC2CCCCC2)C(=O)O)CSSC1(C)C [Example 20, Pro((4R)NH2)-Val-Pro((4R)NH2)-Ile-Ile-Tyr-Pen-Asn-Arg-Dab-Thr-^DDab-Lys-Cys-Dab-Arg-Cha] (H-[Pro(4R-NH2)]V[Pro(4R-NH2)]IIY[Pen]NR[Dab]T[dDab]KC[Dab]R[Cha]-OH; disulfide 7-14) | 1
≤0.03125 | 0.0625 | 0.25 | CC[C@H](C)[C@H](NC(=O)CN(CCN)C(=O)[C@@H](NC(=O)CNCCN)C(C)C)C(=O)N[C@H](C(=O)N[C@@H](Cc1ccc(O)cc1)C(=O)N[C@@H]1C(=O)N[C@@H](CC(N)=O)C(=O)N[C@@H](CCCNC(=N)N)C(=O)N[C@@H](CCN)C(=O)N[C@@H]([C@@H](C)O)C(=O)N[C@H](CCN)C(=O)N[C@@H](CCCCN)C(=O)N[C@H](C(=O)N[C@@H](CCN)C(=O)N[C@@H](CCCNC(=N)N)C(=O)N[C@@H](CC2CCCCC2)C(=O)O)CSSC1(C)C)[C@@H](C)CC [Example 21, Ndab-Val-Ndab-Ile-Ile-Tyr-Pen-Asn-Arg-Dab-Thr-^DDab-Lys-Cys-Dab-Arg-Cha] (H-[Gly(N-2-aminoethyl)]V[Gly(N-2-aminoethyl)]IIY[Pen]NR[Dab]T[dDab]KC[Dab]R[Cha]-OH; disulfide 7-14) | 0
